Test results taken from patent US20030191144A1, “Compounds, compositions and methods for modulating beta-amyloid production” (Active Pass Pharmaceuticals, Inc., priority 2001, published 2003).

Assays:
Assay type in all cases: cell-based
[1] = tested on: Aβ42 from primary murine cortical neurons; test: Aβ42 sandwich ELISA, primary murine cortical neurons infected with APP695; conditions: primary murine cortical neurons infected with APP695, 5 μM, p<0.01, n=6
Protocol: The cDNA coding for human APP695 is cloned in the Smal site of pSFV-1 as described previously (Simons et al., J. Neurosci. 16:899-908, 1996; Tienari et al., Embo. J. 15:5218-29, 1996). PSFV-1/huAPP695 constructs are linearized,with SpeI and run-off transcription using SP6 polymerase is performed to produce mRNA. The transcribed mix of APP and pSFV-helper are cotransfected into BHK cells by electroporation to yield recombinant SFV (Olkkonen et al., J. Neurosci. Res. 35:445-51, 1993). BHK cells are grown in DMEM/F12 supplemented with 5% fetal calf serum, 2 mM L-glutamine, 100 U/ml penicillin, and […] streptomycin. Twenty-four hours after transfection, the culture supernatant containing infective recombinant SFV is collected. Aliquots are snap-frozen in liquid nitrogen and stored at −70° C. until use. […]
The levels of the longer Aβ42 peptide are quantified in both the conditioned media and cell extracts using a sandwich ELISA test (De Strooper et al., Nature 391:387-90, 1998; Vanderstichele et al., Amyloid. 7:245-58, 2000). […] Finally HRP substrate is added and the colorimetric reaction is quantitated spectrophotometrically using a Victor 2 (Wallac) equipped with a 450 nm filter. […] The Aβ42 concentrations in the samples are finally calculated based on the Aβ42 standards nonlinear regression equation and using Mathematica 4.1 software package (Wolfram Research, Champaign, Ill.). […]

[2] = tested on: Aβ40 from human neuroblastoma cells (hDAT; SK-N-MC); test: Aβ40 ELISA, human neuroblastoma cells transiently transfected with APPsw; conditions: 200 μM, 24 hours
Protocol: Human neuroblastoma cells (hDAT; SK-N-MC stably overexpression human dopamine transporter) were routinely maintained in DMEM supplemented with sodium pyruvate (1 mM) and 10% fetal bovine serum. […] Subsequently, 48 hours post-transfection the cells were rinsed with PBS and treated with vehicle (0.1% DMSO) or 100-200 μM pirinixic acid in serum free/phenol free DMEM for 24 hours. After the pharmacological treatment, the exposure media was collected and supplemented with 10% sample treatment buffer (40 mM sodium phosphate (pH 7.4), 40 mM triethanolamine, 0.1% Triton X-100, 200 mM NaCl, 2 mM EGTA, 0.1% Sodium azide), and assayed for either Aβ40 or AP42 by a calorimetric ELISA as per the manufacturer's protocol (Biosource International Inc, California). The cells were lysed in 0.1% Triton X-100 in PBS supplemented with 5 μM Propridium Iodide (Molecular probes, Eugene, Oreg.) and incubated at 37° C. for 30 minutes prior to measuring fluorescence. Secreted Aβ40 and Aβ42 levels were standardized against propridium iodide fluorescence as a measure of total cell number. Data are expressed as a percent of control and represent the mean±SD with n=11 and statistical significance determined by ANOVA with a Tukey's post hoc test at ***p<0.001.

[3] = tested on: Aβtotal from primary murine cortical neurons; test: Aβtotal immunoprecipitation, primary murine cortical neurons infected with APP695; conditions: primary murine cortical neurons infected with APP695, below 250 μM (5-50 μM)
Protocol: The cDNA coding for human APP695 is cloned in the Smal site of pSFV-1 as described previously (Simons et al., J. Neurosci. 16:899-908, 1996; Tienari et al., Embo. J. 15:5218-29, 1996). PSFV-1/huAPP695 constructs are linearized,with SpeI and run-off transcription using SP6 polymerase is performed to produce mRNA. The transcribed mix of APP and pSFV-helper are cotransfected into BHK cells by electroporation to yield recombinant SFV (Olkkonen et al., J. Neurosci. Res. 35:445-51, 1993). BHK cells are grown in DMEM/F12 supplemented with 5% fetal calf serum, 2 mM L-glutamine, 100 U/ml penicillin, and […] streptomycin. Twenty-four hours after transfection, the culture supernatant containing infective recombinant SFV is collected. Aliquots are snap-frozen in liquid nitrogen and stored at −70° C. until use.
All experiments are conducted on murine primary cortical neurons derived from E14 embryos according to established procedures (Annaert et al., J. Cell Biol. 147:277-294, 1999; Cupers et al., J. Cell Biol. 154:731-40, 2001; De Strooper et al., Nature 391:387-90, 1998). […]
Data are expressed as a percent of control and represent the mean±SD with n=6 and statistical significance determined by ANOVA with a Tukey's post hoc test at **p<0.01, ***p<0.001.

Which results are given for Cc1cccc(Nc2cc(Cl)nc(SCC(=O)O)n2)c1C [pirinixic acid]?
decrease in Aβ42 [1]: 20%; effect on Aβ40 [2]: without altering Aβ40; effect on Aβtotal [3]: no significant effect
